Data published in ChEMBL document CHEMBL4616707, “Rationally Designed Covalent BCL6 Inhibitor That Targets a Tyrosine Residue in the Homodimer Interface” (ACS Med Chem Lett, 2020).
Activity calls are given as the source filed them. The calls are words filed in the database; no cut-off is given here.

Key:
[1] = target: B-cell lymphoma 6 protein (Homo sapiens) (UniProt P41182); test: Covalent inhibition of human wild type BCL6 expressed in HEK293T cells transfected with eGFP assessed as rescue of BI-3802-induced BCL6 degradation at 5 uM incubated for 30 hrs followed by […] addition and measured after 5 hrs by flow cytometry based mCherry reporter gene analysis; assay type: cell-based; settings: HEK-293T
[2] = target: B-cell lymphoma 6 protein (Homo sapiens) (UniProt P41182); test: Binding affinity to recombinant human BCL6 (48 to 66 residues) assessed as protein compound adduct formation via Tyr58 residue after 2 hrs by LC-MS/MS analysis
SUD4 = test: Antiproliferative activity against human SU-DHL4 cells assessed as growth inhibition at 6.2 uM after 5 days by Celltiter-Glo assay; assay type: functional, cell-based

SMILES	Activity [1]	Activity [2]	Activity (SUD4)
CNC(=O)COc1cc2cc(Nc3nc(NCc4cccc(S(=O)(=O)F)c4)ncc3Cl)cc(OC)c2n(C)c1=O	Active	Active	Active
O=C1Cc2cc(Nc3nc(NCc4cccc(S(=O)(=O)F)c4)ncc3Cl)ccc2N1	Active	Active	–
CNC(=O)COc1cc2cc(Nc3nc(NCc4cccc(S(C)(=O)=O)c4)ncc3Cl)cc(OC)c2n(C)c1=O	–	–	inactive
